Laboratory results taken from US20230029496A1, “AMINO ACID ALTERNATIVE CURING SYSTEM” (THE TEXAS A&M UNIVERSITY SYSTEM, priority 2019, published 2023).
Where “and” joins values, the source holds several entries; their conditions need not be identical. Equal entries are not always repeated. Where two headings read alike, the source gives them in different places. Marks after values point to notes of the source that are not given here.

What was measured:
[1] = system: nitric oxide synthase system; conditions: 156 ppm sodium nitrite
Description: (§1) After thermal processing and chilling according to USDA-FSIS Appendix A—Thermal processing (71° C.) and B—Cooling procedures (2° C.) guidelines, the frankfurters will be vacuum packaged and stored under refrigeration (2° C.) until analyzed at 0, 14, 28 and 56 days post manufacture.
The samples were analyzed for residual nitrite after deproteinization by sample preparation for amino acid analysis by HPLC.
(§2) Samples were vacuum packaged and refrigerated and evaluated on Day 1, 7, 14, 28 and 56 post manufacture. Differences between treatment and control samples will be determined using Tukey's Least Significant Difference procedure at P≤0.05 level. The experiment was replicated three times.

[2] = system: NOS system; assay: Residual nitrite in test beef frankfurters (Example 12); conditions: 156 ppm sodium nitrite with sodium erythorbate 547 ppm
Description: (§3) The remaining nonmeat ingredients were added (except the antimicrobial) and chopped at 2000 rpm for one minute. Protecta (sodium acetate antimicrobial) was added and the emulsion chopped at 4000 rpm for one minute. The emulsion was evacuated and placed into a vacuum assisted stuffer where each test emulsion was stuffed and twist linked into 22 mm cellulose casings weighing 40 g each. The frankfurter links were hung on smokehouse trucks, placed into a commercial smokehouse and thermally processed to 160° F. (Table 18).
(§4) After thermal processing and chilling (40° F.), the casings were peeled from the frankfurters and were vacuum packaged and stored under refrigerated conditions for residual nitrite and nitrosylation. […] This was done to determine if the L-arginine could the NOS system to generate sufficient NO for cure color development and residual nitrite for antioxidant and antimicrobial effect.

[3] = system: NOS system; assay: NO-heme, total heme, nitrosylation in test beef frankfurters (Example 12); conditions: 156 ppm sodium nitrite with sodium erythorbate 547 ppm
Description: as §3, §4

[4] = system: nitric oxide synthase system; conditions: poultry; for Residual Nitrite, LSMean main effect of Temperature: sodium nitrite
Description: (§5) Fresh ground meat (beef, pork or poultry) was separated in ˜0.5 Kg batches and mixed with 2% salt and 10% added water. […] Each individual batch was mixed (1 min) in a food processor, removed for temperature and pH analyses and then placed into a jerky extruder tube. Approximately 25 g of sample were extruded into 50 mL centrifuge, then capped and labeled and placed into a controlled water batch and heated to a designated internal endpoint temperature (132, 158, or 165° F.).
(§6) Samples also contained 547 ppm sodium erythorbate, a cure accelerator (Phase I) and without sodium erythorbate (Phase II). Samples were placed into test tubes and heated in a controlled water bath to 132, 158 and 165° F. Samples were held in a 40° F. cooler for seven days then tested for residual nitrite. Residual nitrite was tested after deproteinization for amino acid analysis by HPLC. Determination of nitrite (UV/VIS Spectrophotometric Method) was used to detect any residual nitrite for best results in detecting minute amounts of nitrite. Residual nitrite levels were read in a 96 well plate reader at 540 nm.
(§7) Both phases of the experiment were designed as a factorial (concentration level and endpoint temperature) randomized complete block design with three replications. […] Least squares means were generated and Tukey's HSD used to determine significance at P≤0.05.

[5] = system: nitric oxide synthase system; conditions: pork; for Residual Nitrite, LSMean main effect of Temperature: sodium nitrite
Description: as §5, §6, §7

[6] = system: nitric oxide synthase system; conditions: beef; for Residual Nitrite, LSMean main effect of Temperature: sodium nitrite
Description: as §5, §6, §7

[7] = 156 ppm sodium nitrite
Description: as §1
Cooked sample water activity was measured (in triplicate) using an Aqualab Model Series 3 water activity meter.
as §2

[8] = Phase I, with 547 ppm sodium erythorbate, 120 ppm sodium nitrite
[9] = Phase I, with 547 ppm sodium erythorbate, 120 ppm sodium nitrite, 132° F.
[10] = Phase I, with 547 ppm sodium erythorbate, 120 ppm sodium nitrite, 158° F.
[11] = Phase I, with 547 ppm sodium erythorbate, 120 ppm sodium nitrite, 165° F.
[12] = Phase I, with 547 ppm sodium erythorbate, 156 ppm sodium nitrite
[13] = Phase I, with 547 ppm sodium erythorbate, 156 ppm sodium nitrite, 132° F.
[14] = Phase I, with 547 ppm sodium erythorbate, 156 ppm sodium nitrite, 158° F.
[15] = Phase I, with 547 ppm sodium erythorbate, 156 ppm sodium nitrite, 165° F.
[16] = Phase I, with 547 ppm sodium erythorbate, 200 ppm sodium nitrite
[17] = Phase I, with 547 ppm sodium erythorbate, 200 ppm sodium nitrite, 132° F.
[18] = Phase I, with 547 ppm sodium erythorbate, 200 ppm sodium nitrite, 158° F.
[19] = Phase I, with 547 ppm sodium erythorbate, 200 ppm sodium nitrite, 165° F.
[20] = Phase I, with 547 ppm sodium erythorbate, 132° F.
[21] = Phase I, with 547 ppm sodium erythorbate, 158° F.
[22] = Phase I, with 547 ppm sodium erythorbate, 165° F.
[23] = Phase II, without 547 ppm sodium erythorbate, 120 ppm sodium nitrite, 132° F.
[24] = Phase II, without 547 ppm sodium erythorbate, 120 ppm sodium nitrite, 158° F.
[25] = Phase II, without 547 ppm sodium erythorbate, 120 ppm sodium nitrite, 165° F.
[26] = Phase II, without 547 ppm sodium erythorbate, 156 ppm sodium nitrite, 132° F.
[27] = Phase II, without 547 ppm sodium erythorbate, 156 ppm sodium nitrite, 158° F.
[28] = Phase II, without 547 ppm sodium erythorbate, 156 ppm sodium nitrite, 165° F.
[29] = Phase II, without 547 ppm sodium erythorbate, 200 ppm sodium nitrite, 132° F.
[30] = Phase II, without 547 ppm sodium erythorbate, 200 ppm sodium nitrite, 158° F.
[31] = Phase II, without 547 ppm sodium erythorbate, 200 ppm sodium nitrite, 165° F.
[32] = Phase II, without 547 ppm sodium erythorbate, 132° F.
[33] = Phase II, without 547 ppm sodium erythorbate, 158° F.
[34] = Phase II, without 547 ppm sodium erythorbate, 165° F.
[35] = Phase II, without 547 ppm sodium erythorbate, 120 ppm sodium nitrite
[36] = Phase II, without 547 ppm sodium erythorbate, 156 ppm sodium nitrite
[37] = Phase II, without 547 ppm sodium erythorbate, 200 ppm sodium nitrite

With `O=NO` [Sodium Nitrite, Sodium nitrite, reference compound] the residual sodium nitrite ([1]; Day 1) was 85.05, the residual sodium nitrite ([1]; Day 7) was 74.53 and the residual sodium nitrite ([1]; Day 14) was 121.03. For the same compound, the residual sodium nitrite ([1]; Day 28) was 73.73, the Nitrite [2] was 21.27^a ppm and the Nitrite ([2]; listed as sodium nitrite) was 21.27 ppm and ~18 ppm. For the same compound, the NO-Heme [3] was 17.88^b ppm, the Nitrosylation [3] was 94.93^b % and the “Total Heme” value [3] was 79.11^a ppm. The Nitrosylation ([3]; listed as sodium nitrite) was 94.93%, the “Residual Nitrite, LSMean main effect of Concentration” value (“Residual Nitrite … of Concentration” below) [4, 8] was 64.56^b ppm and 64.56 ppm and the “Residual Nitrite, LSMean Conc × Temp” value [4, 9] was 66.48 ppm. The “Residual Nitrite, LSMean Conc × Temp” value [4, 10] was 68.47 ppm, the “Residual Nitrite, LSMean Conc × Temp” value [4, 11] was 58.74 ppm and the “Residual Nitrite … of Concentration” value [4, 12] was 78.51^ab ppm and 78.51 ppm. The “Residual Nitrite, LSMean Conc × Temp” value [4, 13] was 80.52 ppm, the “Residual Nitrite, LSMean Conc × Temp” value [4, 14] was 85.36 ppm and the “Residual Nitrite, LSMean Conc × Temp” value [4, 15] was 69.65 ppm. The “Residual Nitrite … of Concentration” value [4, 16] was 90.59^a ppm and 90.59 ppm, the “Residual Nitrite, LSMean Conc × Temp” value [4, 17] was 107.26 ppm and the “Residual Nitrite, LSMean Conc × Temp” value [4, 18] was 86.10 ppm. For the same compound, the “Residual Nitrite, LSMean Conc × Temp” value [4, 19] was 78.41 ppm, the “Residual Nitrite, LSMean main effect of Temperature” value (shortened to “Residual Nitrite … of Temperature”) [4, 20] was 84.75^a ppm and 84.75 ppm and the “Residual Nitrite … of Temperature” value [4, 21] was 79.98^ab ppm and 79.98 ppm. The “Residual Nitrite … of Temperature” value [4, 22] was 68.93^b ppm and 68.93 ppm, the “Residual Nitrite, LSMean Conc × Temp” value [4, 23] was 171.64^cde ppm and the “Residual Nitrite, LSMean Conc × Temp” value [4, 24] was 148.63^e ppm. For the same compound, the “Residual Nitrite, LSMean Conc × Temp” value [4, 25] was 162.23^de ppm, the “Residual Nitrite, LSMean Conc × Temp” value [4, 26] was 202.54^bc ppm and the “Residual Nitrite, LSMean Conc × Temp” value [4, 27] was 177.54^cde ppm. The “Residual Nitrite, LSMean Conc × Temp” value [4, 28] was 165.70^cde ppm, the “Residual Nitrite, LSMean Conc × Temp” value [4, 29] was 249.27^a ppm and the “Residual Nitrite, LSMean Conc × Temp” value [4, 30] was 223.86^ab ppm. The “Residual Nitrite, LSMean Conc × Temp” value [4, 31] was 189.46^cd ppm, the “Residual Nitrite … of Temperature” value [4, 32] was 207.82^a ppm and 207.82 ppm and the “Residual Nitrite … of Temperature” value [4, 33] was 183.34^b ppm and 183.34 ppm. For the same compound, the “Residual Nitrite … of Temperature” value [4, 34] was 172.46^b ppm and 172.46 ppm, the “Residual Nitrite … of Concentration” value [5, 8] was 42.30^b ppm and 42.30 ppm and the “Residual Nitrite, LSMean Conc × Temp” value [5, 9] was 58.68 ppm. For the same compound, the “Residual Nitrite, LSMean Conc × Temp” value [5, 10] was 41.15 ppm, the “Residual Nitrite, LSMean Conc × Temp” value [5, 11] was 27.07 ppm and the “Residual Nitrite … of Concentration” value [5, 12] was 62.37^a ppm and 62.37 ppm. For the same compound, the “Residual Nitrite, LSMean Conc × Temp” value [5, 13] was 66.93 ppm, the “Residual Nitrite, LSMean Conc × Temp” value [5, 14] was 46.37 ppm and the “Residual Nitrite, LSMean Conc × Temp” value [5, 15] was 73.82 ppm. For the same compound, the “Residual Nitrite … of Concentration” value [5, 16] was 68.22^a ppm and 68.22 ppm, the “Residual Nitrite, LSMean Conc × Temp” value [5, 17] was 63.47 ppm and the “Residual Nitrite, LSMean Conc × Temp” value [5, 18] was 57.10 ppm. The “Residual Nitrite, LSMean Conc × Temp” value [5, 19] was 84.08 ppm, the “Residual Nitrite … of Temperature” value [5, 20] was 63.03 ppm and the “Residual Nitrite … of Temperature” value [5, 21] was 48.21 ppm. The “Residual Nitrite … of Temperature” value [5, 22] was 61.66 ppm, the “Residual Nitrite … of Concentration” value [5, 35] was 214.53^a ppm and 214.53 ppm and the “Residual Nitrite, LSMean Conc × Temp” value [5, 23] was 173.70^ab ppm. For the same compound, the “Residual Nitrite, LSMean Conc × Temp” value [5, 24] was 178.90^ab ppm, the “Residual Nitrite, LSMean Conc × Temp” value [5, 25] was 164.54^b ppm and the “Residual Nitrite … of Concentration” value [5, 36] was 183.17^b ppm and 183.17 ppm. For the same compound, the “Residual Nitrite, LSMean Conc × Temp” value [5, 26] was 208.65^ab ppm, the “Residual Nitrite, LSMean Conc × Temp” value [5, 27] was 166.20^b ppm and the “Residual Nitrite, LSMean Conc × Temp” value [5, 28] was 174.67^ab ppm. For the same compound, the “Residual Nitrite … of Concentration” value [5, 37] was 172.38^b ppm and 172.38 ppm, the “Residual Nitrite, LSMean Conc × Temp” value [5, 29] was 196.48^ab ppm and the “Residual Nitrite, LSMean Conc × Temp” value [5, 30] was 232.01^a ppm. The “Residual Nitrite, LSMean Conc × Temp” value [5, 31] was 215.08^ab ppm, the “Residual Nitrite … of Temperature” value [5, 32] was 192.61 ppm and the “Residual Nitrite … of Temperature” value [5, 33] was 186.00 ppm. The “Residual Nitrite … of Temperature” value [5, 34] was 185.85 ppm, the “Residual Nitrite … of Concentration” value [6, 8] was 75.33 ppm and the “Residual Nitrite, LSMean Conc × Temp” value [6, 9] was 119.32^a ppm. For the same compound, the “Residual Nitrite, LSMean Conc × Temp” value [6, 10] was 60.08^bc ppm, the “Residual Nitrite, LSMean Conc × Temp” value [6, 11] was 46.59^c ppm and the “Residual Nitrite … of Concentration” value [6, 12] was 81.08 ppm. For the same compound, the “Residual Nitrite, LSMean Conc × Temp” value [6, 13] was 107.54^ab ppm, the “Residual Nitrite, LSMean Conc × Temp” value [6, 14] was 77.51^abc ppm and the “Residual Nitrite, LSMean Conc × Temp” value [6, 15] was 58.18^bc ppm. The “Residual Nitrite … of Concentration” value [6, 16] was 72.05 ppm, the “Residual Nitrite, LSMean Conc × Temp” value [6, 17] was 86.41^abc ppm and the “Residual Nitrite, LSMean Conc × Temp” value [6, 18] was 47.02^c ppm. For the same compound, the “Residual Nitrite, LSMean Conc × Temp” value [6, 19] was 82.73^ab ppm, the “Residual Nitrite … of Temperature” value [6, 20] was 104.42^a ppm and 104.42 ppm and the “Residual Nitrite … of Temperature” value [6, 21] was 61.54^b ppm and 61.54 ppm. For the same compound, the “Residual Nitrite … of Temperature” value [6, 22] was 62.50^b ppm and 62.50 ppm, the “Residual Nitrite … of Concentration” value [6, 35] was 182.18 ppm and the “Residual Nitrite, LSMean Conc × Temp” value [6, 23] was 187.92 ppm. The “Residual Nitrite, LSMean Conc × Temp” value [6, 24] was 204.95 ppm, the “Residual Nitrite, LSMean Conc × Temp” value [6, 25] was 153.68 ppm and the “Residual Nitrite … of Concentration” value [6, 36] was 202.15 ppm. For the same compound, the “Residual Nitrite, LSMean Conc × Temp” value [6, 26] was 199.54 ppm, the “Residual Nitrite, LSMean Conc × Temp” value [6, 27] was 214.72 ppm and the “Residual Nitrite, LSMean Conc × Temp” value [6, 28] was 192.19 ppm. The “Residual Nitrite … of Concentration” value [6, 37] was 196.51 ppm, the “Residual Nitrite, LSMean Conc × Temp” value [6, 29] was 184.28 ppm and the “Residual Nitrite, LSMean Conc × Temp” value [6, 30] was 202.30 ppm. The “Residual Nitrite, LSMean Conc × Temp” value [6, 31] was 202.96 ppm, the “Residual Nitrite … of Temperature” value [6, 32] was 190.58 ppm and the “Residual Nitrite … of Temperature” value [6, 33] was 207.32 ppm. The “Residual Nitrite … of Temperature” value [6, 34] was 182.94 ppm, the “water activity (Aw)” value ([7]; Day 1) was 0.979 and the “water activity (Aw)” value ([7]; Day 7) was 0.979. For the same compound, the “water activity (Aw)” value ([7]; Day 14) was 0.972 and the “water activity (Aw)” value ([7]; Day 28) was 0.978.
